Measured values: patent US20230295201A1 (Gilead Sciences, Inc., priority 2020, published 2023)
Like-named read-outs stand apart in the source and are kept apart here.

Columns and labels:
Assay type in all cases: cell-based
RSV A strain A2 = assay: RSV HAE EC50 (intracellular RSV RNA by real-time PCR in HAE cells); settings: human respiratory syncytial virus, 72 h, read-out: RSV HAE EC50
Procedure: HAE cells are cultured at the air-liquid interface and have an apical side that is exposed to the air and a basal side that is in contact with the medium. Prior to experimentation, HAE were removed from their agar-based shipping packaging and were acclimated to 37° C./5% CO2 overnight in 1 ml of HAE Assay medium (AIR-100-MM, Mattek Corp). HAE were prepared for infection by washing the apical surface twice with 400 μL of PBS (either utilizing direct pipetting methods or by running each transwell through a trough containing PBS) to remove the mucus layer. Apical chambers were drained of PBS and tapped gently onto absorbent material to remove as much PBS as possible. After washing, the cells were transferred to fresh HAE maintenance media containing 4-fold serially diluted compound, delivered to the basal side of the cell monolayer, and apically infected with 100 μL of a 1:600 dilution of RSV A strain A2 1000× stock (ABI, Columbia, MD, cat #10-124-000) in HAE assay medium for 3 hours at 37° C. in 5% CO2. The virus inoculum was removed and the apical surface of the cells was washed 3 times with PBS using either method previously described. The cells were then cultured in the presence of compound for 3 days at 37° C. Following the incubation, total RNA was extracted from the HAE cells using a MagMAX-96 Viral RNA isolation kit (Applied Biosystems, Foster City, CA, Cat #AM1836) and intracellular RSV RNA was quantified by real-time PCR. Approximately 25 ng of purified RNA was added to a PCR reaction mixture that contained 0.9 μM RSV N Forward and RSV N Reverse primers, 0.2 μM RSV N Probe and 1×Taqman RNA-to-Ct 1-Step Kit (Applied Biosystems, Foster City, CA, Cat #4392938). RNA levels were normalized using a Tagman GAPDH control primer set (Applied Biosystems, Foster City, CA, Cat #402869). Real-Time PCR Primers and Probe Used in the RSV A2 HAE Antiviral Assay: […]

[1] = system: Dengue serotype 2 New Guinea C (NGC) strain; assay: DENV-2 Huh-7 EC50 (qPCR in Huh7 cells); settings: Dengue virus, DENV2, Huh-7, 48 h
Summary of the method: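 Huh7 cells infected 2 h at 37 °C with DENV-2 NGC at MOI 0.1, then plated with graded compound doses (0.25% DMSO) in triplicate. After 48 h, viral RNA quantified by duplex TaqMan RT-qPCR against GAPDH; EC50 normalized to positive control and no-compound wells.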

HCV replicon 1B = assay: HCV Rep 1B EC50 (replicon luciferase); settings: Hepatitis C virus, 72 h
Procedure: (§1) Compounds were serially diluted in ten steps of 1:3 dilutions in 384-well plates. All serial dilutions were performed in four replicates per compound within the same 384-well plate. […] To each well of a black polystyrene 384-well plate (Greiner Bio-one, Monroe, NC), 90 μL of cell culture medium (without Geneticin) containing 2000 suspended HCV replicon cells was added with a Biotek μFlow workstation. For compound transfer into cell culture plates, 0.4 μL of compound solution from the compound serial dilution plate was transferred to the cell culture plate on a Biomek FX workstation. The DMSO concentration in the final assay wells was 0.44%. The plates were incubated for 3 days at 37° C. with 5% CO2 and 85% humidity. The HCV replicon assay was a multiplex assay, able to assess both cytotoxicity and antireplicon activity from the same well. The CC50 assay was performed first. The media in the 384-well cell culture plate was aspirated, and the wells were washed four times with 100 μL of PBS each, using a Biotek ELX405 plate washer. A volume of 50 μL of a solution containing 400 nM calcein AM (Anaspec, Fremont, CA) in 1×PBS was added to each well of the plate with a Biotek μFlow workstation. The plate was incubated for 30 min at room temperature before the fluorescence signal (excitation 490 nm, emission 520 nm) was measured with a Perkin-Elmer Envision plate reader. The EC50 assay was performed in the same wells as the CC50 assay. The calcein-PBS solution in the 384-well cell culture plate was aspirated with a Biotek ELX405 plate washer. A volume of 20 μL of Dual-Glo luciferase buffer (Promega, Madison, WI) was added to each well of the plate with a Biotek μFlow Workstation. The plate was incubated for 10 min at room temperature. A volume of 20 μL of a solution containing a 1:100 mixture of Dual-Glo Stop & Glo substrate (Promega, Madison, WI) and Dual-Glo Stop & Glo buffer (Promega, Madison, WI) was added to each well of the plate with a Biotek μFlow Workstation. The plate was then incubated at room temperature for 10 min before the luminescence signal was measured with a Perkin-Elmer Envision Plate Reader.

HCV replicon 2A = assay: HCV Rep 2A EC50 (replicon luciferase); settings: Hepatitis C virus, 72 h
Procedure: as §1

[2] = system: Dengue 2, New Guinea strain (NGC); assay: DENV-2 moDC EC50 (qPCR in human monocyte-derived dendritic cells); settings: Dengue virus, DENV2, Dendritic cell, moDCs
Procedure: Human monocyte-derived dendritic cells (moDCs) were derived from CD14+ monocytes (AllCells) cultured in Human Mo-DC Differentiation medium containing GM-CSF and IL-4 (Miltenyi Biotec). On day 7, moDCs were harvested by mechanical disruption, washed and suspended in serum-free RPMI. moDCs were infected with Vero-derived Dengue 2, New Guinea strain (NGC) at a MOI=0.1 for two hours in serum-free RPMI with gentle agitation at 37° C. Cells were washed and resuspended in 10% serum-containing RPMI (Gibco, supplemented with sodium pyruvate, NEAA, Penicillin-Streptomycin). 10^5 cells were plated in triplicate in 96-well plates with compounds dispensed at graded doses (Hewlett-Packard D300 Digital Dispenser). All wells were normalized to 0.25% DMSO. At 48 hours, cells were washed with 1×PBS and all supernatants removed. Total RNA was extracted using RNEasy 96 plates (Qiagen) and used to generate first-strand cDNA using XLT cDNA 5× Supermix (QuantaBio). cDNA was used as a template in a Taqman qPCR duplex reaction specific to DENV2 viral and GAPDH gene expression. EC50 values were determined using Prism Graphpad software, with normalization to a positive control and no compound negative control wells.

[3] = read-out: HCV Rep 1B EC50, replicon cells, 3 days
[4] = read-out: HCV Rep 2A EC50, replicon cells, 3 days
[5] = replicon cells, 3 days, read-out: HCV Rep 1B EC50
[6] = replicon cells, 3 days, read-out: HCV Rep 2A EC50

Compound | EC50 (RSV A strain A2; HAE) [nM] | EC50 [1] [nM] | EC50 (HCV replicon 1B; [3]) [nM] | EC50 (HCV replicon 2A; [4]) [nM] | EC50 ([2]; 48 h) [nM] | EC50 (RSV A strain A2; HAE cells, RSV A2, 3 days) [nM] | EC50 ([2]; 48 hours) [nM] | EC50 (HCV replicon 1B; [5]) [nM] | EC50 (HCV replicon 2A; [6]) [nM]
CCCCCCCCCCCC(=O)OCCNP(=O)(OC[C@@]1(C#N)O[C@@H](c2ccc3c(N)ncnn23)[C@H](O)[C@@H]1O)Oc1ccccc1 (mixture of isomers) [Example 181, 2-(((((2R,3S,4R,5S)-5-(4-aminopyrrolo[2,1-f][1,2,4]triazin-7-yl)-2-cyano-3,4-dihydroxytetrahydrofuran-2-yl)methoxy)(phenoxy)phosphoryl)amino)ethyl dodecanoate] | 212 | 795 | 861 | 1680 | – | – | – | – | –
C[C@H](N[P@](=O)(OC[C@@]1(C#N)O[C@@H](c2ccc3c(N)ncnn23)[C@H](O)[C@@H]1O)Oc1ccccc1)C(=O)OC1CCCCC1 (single isomer, unassigned) [Example 6] | 20 | 1630 | 793 | 1270 | > 6190 | – | – | – | –
C[C@H](N[P@](=O)(OC[C@@]1(C#N)O[C@@H](c2ccc3c(N)ncnn23)[C@H](O)[C@@H]1O)Oc1ccccc1)C(=O)O[C@H]1CC[C@H](C(F)(F)F)CC1 (single isomer, unassigned) [Example 18] | 27 | – | 1110 | 1480 | – | – | – | – | –
C[C@H](N[P@](=O)(OC[C@@]1(C#N)O[C@@H](c2ccc3c(N)ncnn23)[C@H](O)[C@@H]1O)Oc1ccccc1)C(=O)O[C@H]1CC[C@H](C(C)(C)C)CC1 (single isomer, unassigned) [Example 22] | 19 | 665 | – | – | – | – | – | – | –
CCC(CC)COC(=O)[C@H](C)N[P@](=O)(OC[C@@]1(C#N)O[C@@H](c2ccc3c(N)ncnn23)[C@H](O)[C@@H]1O)Oc1ccccc1 (single isomer, unassigned) [Example 25] | 152 | 840 | 443 | 448 | 524 | – | – | – | –
CCCCCCCCCCCCCCCCCCOC[C@H](COP(=O)(O)OC[C@@]1(C#N)O[C@@H](c2ccc3c(N)ncnn23)[C@H](O)[C@@H]1O)OCc1ccccc1 [Example 96, ((2R,3S,4R,5S)-5-(4-aminopyrrolo[2,1-f][1,2,4]triazin-7-yl)-2-cyano-3,4-dihydroxytetrahydrofuran-2-yl)methyl ((R)-2-(benzyloxy)-3-(octadecyloxy)propyl) hydrogen phosphate] | – | – | – | – | – | 22400 | > 25000 | 30700 | 47300
CCCCCCCCCCCCCCCCOCCCOP(=O)(O)OC[C@@]1(C#N)O[C@@H](c2ccc3c(N)ncnn23)[C@H](O)[C@@H]1O [Example 149, ((2R,3S,4R,5S)-5-(4-aminopyrrolo[2,1-f][1,2,4]triazin-7-yl)-2-cyano-3,4-dihydroxytetrahydrofuran-2-yl)methyl (3-(hexadecyloxy)propyl) hydrogen phosphate] | – | – | – | – | – | 188 | – | 31100 | > 44400
CCCCCCCCCCCCOC(=O)[C@H](C)NP(=O)(OC[C@@]1(C#N)O[C@@H](c2ccc3c(N)ncnn23)[C@H](O)[C@@H]1O)Oc1ccccc1 (stereo partly drawn) [Example 191, dodecyl ((((2R,3S,4R,5S)-5-(4-aminopyrrolo[2,1-f][1,2,4]triazin-7-yl)-2-cyano-3,4-dihydroxytetrahydrofuran-2-yl)methoxy)(phenoxy)phosphoryl)-L-alaninate] | 11 | 13300 | 19700 | 34100 | 1070 | – | – | – | –
